Here are results for twelve molecules from ChEMBL document CHEMBL1201862, “PubChem BioAssay data set” (2004).

Holding throughout (assay): NCI tumour cell line growth inhibition, 48 h
Assay [1] concerns SK-MEL-5.
The test system of assay [2] is SF-268.
The subject of assay [3] is A498.
Assay [4] relates to HT-29.
Assay [5] concerns HL-60.
Assay [6] relates to KM12.
Assay [7] concerns HOP-62.
Assay [8] has as its system IGROV-1.
Assay [9] relates to SW-620.
The test system of assay [10] is OVCAR-3.
The subject of assay [11] is NCI-H460.
The test system of assay [12] is COLO 205.
For assay [13], the system named is K562.
The test system of assay [14] is HCT-15.
For assay [15], the system named is RPMI-8226.
For assay [16], the system named is ACHN.
Assay [17] concerns SF-295.

The structures appear in SMILES notation.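 Five compound concentrations were applied to cells in 96-well plates for 48 hours; endpoints were derived by simple linear interpolation of the resulting dose-response curve. GI50: concentration for 50% inhibition of growth.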 Calls of active or inactive are those of the source. Rule as the data show it: active = GI50 up to about 1.1 µM and inactive = higher.

Turning to `O=C1C=C(Nc2ccc(S(=O)(=O)Nc3ncccn3)cc2)c2ccccc2C1=O`, the GI50 is 18.2 µM (inactive) in assay [1]; 28.5 µM (inactive) in assay [2]; 30.3 µM (inactive) in [3]; 22.6 µM (inactive) in assay [4]; 25.4 µM (inactive) in [5]; 18.4 µM (inactive) in [6]. The GI50 in [7] was 24.5 µM (inactive); in [8] it was 26.5 µM (inactive); in assay [9], 19.5 µM (inactive); in assay [10] it was 14.6 µM (inactive); in assay [11] it was 20.7 µM (inactive); in assay [12] it was 22.5 µM (inactive). Further, the GI50 in [13] is 15.6 µM (inactive); in [14], 22.5 µM; in assay [15] it was 37.6 µM (inactive); in [16], 27 µM (inactive); in [17], 20.6 µM (inactive).
Take `c1cc2c3c(c1)c1cc4c(cc1c[n+]3CC2)OCO4` [ANHYDROLYCORINIUM CHLORIDE]: the GI50 in assay [1] was 3.79 µM (inactive); in assay [2], 0.618 µM (active); in [3] it was 2.37 µM (inactive); in assay [4] it was 7.4 µM (inactive); in assay [5], 6.3 µM (inactive); in assay [6], 0.582 µM (active). Besides, the GI50 was 3.83 µM (inactive) in [7]; 4.02 µM (inactive) in assay [8]; 1.9 µM (inactive) in assay [9]; 3.4 µM (inactive) in [10]; 3.73 µM (inactive) in assay [11]; 2.74 µM (inactive) in [12]. Moreover, the GI50 in assay [13] is 4.47 µM (inactive); in assay [14] it was > 164 µM; in [15], 2.14 µM (inactive); in assay [17] it was 0.802 µM (active).
Turning to `CN1CCC23c4ccccc4NC1C21CCN(C)C3Nc2ccccc21`, the GI50 was > 174 µM (inactive) in [1]; 102 µM (inactive) in assay [2]; > 218 µM (inactive) in assay [3]; > 375 µM (inactive) in [4]; 59.7 µM (inactive) in [5]; 268 µM (inactive) in assay [6]. Besides, the GI50 in assay [7] is > 375 µM (inactive); in [8] it was > 375 µM (inactive); in [9] it was > 375 µM (inactive); in assay [10], > 375 µM (inactive); in assay [11], > 375 µM (inactive); in [12], > 338 µM (inactive). Moreover, the GI50 in assay [13] is 130 µM (inactive); in assay [14], > 375 µM; in assay [15], 157 µM (inactive); in assay [17], > 375 µM (inactive).
Turning to `CC(=O)NNc1nc(C)c(C(=O)NNC(=O)C(=O)Nc2c(C)cccc2C(C)C)s1`, the GI50 is 95.1 µM (inactive) in assay [1]; 59.6 µM (inactive) in assay [2]; 51.4 µM (inactive) in assay [3]; > 100 µM (inactive) in assay [4]; 46.7 µM (inactive) in assay [5]; 95.7 µM (inactive) in assay [6]. Moreover, the GI50 in assay [7] was > 100 µM (inactive); in [8] it was > 100 µM (inactive); in assay [9] it was 55.3 µM (inactive); in [10], 36.9 µM (inactive); in assay [11] it was 86.3 µM (inactive); in assay [12] it was > 100 µM (inactive). Also, the GI50 was 46.7 µM (inactive) in assay [13]; 60.3 µM in assay [14]; 57.5 µM (inactive) in [15]; 60.1 µM (inactive) in assay [16]; 89.9 µM (inactive) in [17].
As to `CCCCCCCCCCCCCCCCCCOCC(O)CO` (centres undefined) [BATILOL], the GI50 is 2.07 µM (inactive) in [1]; > 25 µM (inactive) in assay [2]; 3.61 µM (inactive) in [3]; 14.5 µM (inactive) in assay [4]; 10.5 µM (inactive) in [5]; 21.6 µM (inactive) in assay [6]. Also, the GI50 in assay [7] was 14 µM (inactive); in assay [8], 13.6 µM (inactive); in assay [9], > 17 µM (inactive); in [10], > 23.9 µM (inactive); in assay [11], > 20.2 µM (inactive); in [12] it was > 25 µM (inactive). In addition, the GI50 in assay [13] was > 22.4 µM (inactive); in assay [14] it was > 25 µM; in [15], 4.9 µM (inactive); in assay [17] it was 18.6 µM (inactive).
For `O=C1/C(=C/c2cccc([N+](=O)[O-])c2)COc2ccc(Br)cc21`, the GI50 is > 100 µM (inactive) in assay [1]; > 100 µM (inactive) in assay [2]; > 100 µM (inactive) in [3]; 58.6 µM (inactive) in assay [4]; 17.7 µM (inactive) in assay [5]; > 100 µM (inactive) in assay [6]. For the same molecule, the GI50 in assay [7] is > 100 µM (inactive); in assay [8], > 100 µM (inactive); in assay [9] it was 42.4 µM (inactive); in [10], > 100 µM (inactive); in [11], > 100 µM (inactive); in assay [12], > 100 µM (inactive). In addition, the GI50 in [13] is 22.9 µM (inactive); in assay [15], 2.24 µM (inactive); in [16] it was > 100 µM (inactive); in assay [17] it was > 100 µM (inactive).
Regarding `CCOC(=O)c1ccn2c(c1)c(C#N)c1nc3ccccc3nc12`, the GI50 in assay [1] is 35.6 µM (inactive); in [2], > 100 µM (inactive); in [3], 85.5 µM (inactive); in assay [5] it was 38.8 µM (inactive); in [6] it was 51.6 µM (inactive); in assay [7], > 100 µM (inactive). Moreover, the GI50 was 5.4 µM (inactive) in [8]; 50 µM (inactive) in assay [9]; > 100 µM (inactive) in assay [10]; 28.6 µM (inactive) in [11]; 48.2 µM (inactive) in [12]; 33.9 µM (inactive) in assay [13]. Further, the values for the GI50 in assay [14], in [15] and in [16] were 41.6 µM, 43.6 µM (inactive) and 55.5 µM (inactive), respectively.
On to `CC(=O)OC1CC2C(C)(C)C(=O)C=C[C@]2(C)C2CCC3(C)C(=CC(=O)C3c3ccoc3)[C@]12C` (some centres undefined), for which the GI50 is 13.1 µM (inactive) in assay [1]; 15.6 µM (inactive) in assay [2]; 16.9 µM (inactive) in assay [3]; 13.5 µM (inactive) in assay [4]; 14.3 µM (inactive) in [5]; 11.9 µM (inactive) in [6]. In addition, the GI50 is 16.3 µM (inactive) in assay [7]; 16.6 µM (inactive) in [8]; 10.5 µM (inactive) in assay [9]; 11.5 µM (inactive) in assay [10]; 11.4 µM (inactive) in [11]; 16.9 µM (inactive) in [12]. Further, the GI50 was 9.55 µM (inactive) in assay [13]; 11.7 µM in assay [14]; 14.9 µM (inactive) in assay [15]; 16.2 µM (inactive) in assay [16]; 15.2 µM (inactive) in [17].
For `COc1ccccc1NC(=O)C1=C(C)NC(C)=C(C(=O)Nc2ccccc2OC)C1c1ccc(N(C)C)cc1`, the GI50 in assay [1] is 30.8 µM (inactive); in [2], 24.5 µM (inactive); in [3], 32.8 µM (inactive); in assay [4], 45.4 µM (inactive); in assay [5], 15.8 µM (inactive); in assay [6], 21.6 µM (inactive). Also, the GI50 was 22.3 µM (inactive) in [7]; 33.4 µM (inactive) in [8]; 36.3 µM (inactive) in [9]; 19.1 µM (inactive) in [10]; 27.5 µM (inactive) in assay [11]; 31 µM (inactive) in assay [12]. The GI50 in [13] was 18.9 µM (inactive); in assay [15], 16.6 µM (inactive); in [16], 33 µM (inactive); in [17], 38 µM (inactive).
For `CC(=O)Oc1cc2c(cc1OC(C)=O)OCC(c1ccc(C)cc1)C2` (centres undefined), the GI50 is 6.12 µM (inactive) in assay [1]; 10.5 µM (inactive) in assay [2]; 8.69 µM (inactive) in [3]; 29.2 µM (inactive) in [4]; 2.61 µM (inactive) in assay [5]; 21.6 µM (inactive) in assay [6]. The GI50 in assay [7] was 20.5 µM (inactive); in assay [8], 20.3 µM (inactive); in assay [9], 19.5 µM (inactive); in [10], 21.6 µM (inactive); in [11], 15.1 µM (inactive); in [12], 20.5 µM (inactive). Further, the GI50 in [13] is 17.1 µM (inactive); in assay [14] it was 19.6 µM; in assay [15], 11.6 µM (inactive); in assay [17] it was 28.7 µM (inactive).
On to `CC1(c2ccc[n+](Cc3ccccc3)c2)OCCO1`, for which the GI50 in assay [1], in [3], in assay [4], in [5], in assay [6] and in assay [7] was > 100 µM (inactive) throughout. Besides, the GI50 in assay [8], in assay [9], in assay [10], in assay [11], in [12] and in assay [13] was > 100 µM (inactive) each time. The GI50 in [14] was > 100 µM; in assay [15] it was > 100 µM (inactive); in assay [16], > 100 µM (inactive); in assay [17] it was > 100 µM (inactive).
On to `N=C(N)SCc1cccc([N+](=O)[O-])c1`, for which the GI50 in assay [1] was 32 µM (inactive); in assay [2] it was 33 µM (inactive); in assay [3], 25.1 µM (inactive); in assay [4], 30.1 µM (inactive); in [5], 18.8 µM (inactive); in assay [6] it was 24.4 µM (inactive). Moreover, the GI50 in assay [7] was 26.7 µM (inactive); in assay [8] it was 57.7 µM (inactive); in assay [9], 36.6 µM (inactive); in assay [10] it was 18.6 µM (inactive); in [11], 34.1 µM (inactive); in assay [12], 21.5 µM (inactive). In addition, the GI50 is 22.1 µM (inactive) in assay [13], 34.5 µM in [14], 22.8 µM (inactive) in assay [15] and 38.9 µM (inactive) in assay [17].
